Experimental data as given in ChEMBL document CHEMBL4840312, “Discovery of memantyl urea derivatives as potent soluble epoxide hydrolase inhibitors against lipopolysaccharide-induced sepsis” (Eur J Med Chem, 2021).
pIC50: −log10 of the molar value.

How the values were obtained:
[1] = molecular target: T1, Bifunctional epoxide hydrolase 2 (Homo sapiens, UniProt P34913)
T1 sequence (P34913 whole entry): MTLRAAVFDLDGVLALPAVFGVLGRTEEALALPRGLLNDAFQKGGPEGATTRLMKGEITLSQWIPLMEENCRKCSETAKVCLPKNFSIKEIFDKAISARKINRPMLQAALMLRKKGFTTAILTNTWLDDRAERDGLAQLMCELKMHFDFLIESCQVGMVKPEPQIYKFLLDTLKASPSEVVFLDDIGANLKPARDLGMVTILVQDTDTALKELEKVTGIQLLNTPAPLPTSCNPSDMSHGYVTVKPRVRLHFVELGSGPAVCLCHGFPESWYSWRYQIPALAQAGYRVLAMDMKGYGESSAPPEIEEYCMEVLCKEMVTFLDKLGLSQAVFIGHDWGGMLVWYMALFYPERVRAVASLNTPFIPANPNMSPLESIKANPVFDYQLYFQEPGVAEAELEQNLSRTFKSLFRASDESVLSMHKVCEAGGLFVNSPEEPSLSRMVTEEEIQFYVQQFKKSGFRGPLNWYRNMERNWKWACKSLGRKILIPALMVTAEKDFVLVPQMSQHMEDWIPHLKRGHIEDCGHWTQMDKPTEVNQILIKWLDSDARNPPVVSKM
Description: Inhibition of human recombinant sEH using PHOME as substrate measured after 10 mins by fluorescent based assay

[2] = molecular target: T2, Bifunctional epoxide hydrolase 2 (Mus musculus, UniProt P34914)
T2 sequence (P34914 whole entry): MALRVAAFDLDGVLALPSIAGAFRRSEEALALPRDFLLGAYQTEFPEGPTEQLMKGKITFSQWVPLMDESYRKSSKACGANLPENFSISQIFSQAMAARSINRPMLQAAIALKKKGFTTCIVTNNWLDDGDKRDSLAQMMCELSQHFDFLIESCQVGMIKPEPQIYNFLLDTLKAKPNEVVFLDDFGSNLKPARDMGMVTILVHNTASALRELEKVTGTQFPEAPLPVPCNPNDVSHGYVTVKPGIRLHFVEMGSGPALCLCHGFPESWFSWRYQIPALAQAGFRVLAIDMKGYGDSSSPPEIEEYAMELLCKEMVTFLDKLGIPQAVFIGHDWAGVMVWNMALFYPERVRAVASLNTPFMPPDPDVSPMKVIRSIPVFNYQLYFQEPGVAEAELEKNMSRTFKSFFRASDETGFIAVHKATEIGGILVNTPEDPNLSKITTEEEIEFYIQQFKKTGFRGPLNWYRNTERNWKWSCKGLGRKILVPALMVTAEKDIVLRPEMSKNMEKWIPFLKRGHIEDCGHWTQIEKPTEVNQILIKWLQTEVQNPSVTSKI
Description: Inhibition of mouse recombinant sEH using PHOME as substrate measured after 10 mins by fluorescent based assay

[3] = Acute toxicity in ICR mouse assessed as body weight at 100 mg/kg, ip administered as single dose observed for 14 days; type: organism-based; settings: in vivo, 336 h, time 14 day
[4] = Reversible toxicity in ICR mouse assessed as eye secretion at 100 mg/kg, ip administered as single dose observed for 14 days; type: organism-based; settings: in vivo, 336 h, time 14 day
[5] = Cmax in Sprague-Dawley rat at 3 mg/kg, iv administered as single dose upto 24 hrs by LC-MS analysis; type: ADME, organism-based; set-up: route intravenous, dose 3 mg/kg, time <=24; settings: in vivo
[6] = Cmax in Sprague-Dawley rat at 30 mg/kg, po administered as single dose upto 24 hrs by LC-MS analysis; type: ADME, organism-based; set-up: route oral, dose 30 mg/kg, time <=24; settings: in vivo
[7] = Clearance in Sprague-Dawley rat at 3 mg/kg, iv administered as single dose upto 24 hrs by LC-MS analysis; type: ADME, organism-based; settings: in vivo
[8] = Clearance in Sprague-Dawley rat at 30 mg/kg, po administered as single dose upto 24 hrs by LC-MS analysis; type: ADME, organism-based; settings: in vivo
[9] = Volume of distribution in Sprague-Dawley rat at 3 mg/kg, iv administered as single dose upto 24 hrs by LC-MS analysis; type: ADME, organism-based; settings: in vivo
[10] = Volume of distribution in Sprague-Dawley rat at 30 mg/kg, po administered as single dose upto 24 hrs by LC-MS analysis; type: ADME, organism-based; settings: in vivo
[11] = AUC (0 to 24 hrs) in Sprague-Dawley rat at 3 mg/kg, iv administered as single dose upto 24 hrs by LC-MS analysis; type: ADME, organism-based; set-up: route intravenous, dose 3 mg/kg, time <=24; settings: in vivo
[12] = AUC (0 to 24 hrs) in Sprague-Dawley rat at 30 mg/kg, po administered as single dose upto 24 hrs by LC-MS analysis; type: ADME, organism-based; set-up: route oral, dose 30 mg/kg, time <=24; settings: in vivo
[13] = AUC (0 to infinity) in Sprague-Dawley rat at 30 mg/kg, po administered as single dose upto 24 hrs by LC-MS analysis; type: ADME, organism-based; set-up: route oral, dose 30 mg/kg, time <=24; settings: in vivo
[14] = Microsomal stability in human liver microsomes assessed as substrate remaining in presence of NADPH measured after 5 mins by LC-MS/MS analysis
[15] = Microsomal stability in human liver microsomes assessed as substrate remaining in presence of NADPH measured after 10 mins by LC-MS/MS analysis
[16] = Microsomal stability in human liver microsomes assessed as substrate remaining in presence of NADPH measured after 20 mins by LC-MS/MS analysis
[17] = Microsomal stability in human liver microsomes assessed as substrate remaining in presence of NADPH measured after 30 mins by LC-MS/MS analysis; settings: 0.5 h
[18] = Microsomal stability in human liver microsomes assessed as substrate remaining in presence of NADPH measured after 60 mins by LC-MS/MS analysis; settings: 1 h
[19] = tested on: Mus musculus; test: Effect on C57BL/6 mouse model of LPS induced sepsis assessed as survival rate in 24 hrs at 5 mg/kg, ip (reference value: 71.4%); type: functional; settings: C57BL/6, ip
[20] = tested on: Mus musculus; test: Effect on C57BL/6 mouse model of LPS induced sepsis assessed as survival rate in 72 hrs at 5 mg/kg, ip (reference value: 28.6%); type: functional; settings: C57BL/6, ip

## O=C(Nc1ccc(C(=O)NC2CCCCC2)cc1)NC12CC3CC(CC(O)(C3)C1)C2
[1]
  pIC50: 6.10
[2]
  pIC50: 7.03

## CC12CC3CC(C)(C1)CC(NC(=O)CCC(=O)N1CCCCC1)(C3)C2
[1]
  pIC50: 5.61
[2]
  pIC50: 4.66

## CC12CC3CC(C)(C1)CC(NC(=O)CCCC(=O)N1CCCCC1)(C3)C2
[1]
  pIC50: 5.23
[2]
  pIC50: 5.23

## O=C(Nc1ccc(C(=O)NC2CCCCC2)cc1)NC1C2CC3CC1CC(O)(C3)C2 (centres undefined)
[1]
  pIC50: 6.31
[2]
  pIC50: 6.33

## CC12CC3CC(C)(C1)CC(NC(=O)Nc1ccc(C(=O)NC4CCCCC4)cc1)(C3)C2
[1]
  pIC50: 8.64
[3]
  Activity: Non-Toxic
[2]
  pIC50: 9.40

## CC(C)CNC(=O)c1ccc(NC(=O)NC23CC4CC(C)(CC(C)(C4)C2)C3)cc1
[1]
  pIC50: 9.15
[3]
  Activity: Non-Toxic
[2]
  pIC50: 9.40

## CC12CC3CC(C)(C1)CC(NC(=O)CCC(=O)NC1CCCCC1)(C3)C2
[1]
  pIC50: 5.10
[2]
  pIC50: 6.75

## CC(C)CNC(=O)c1ccc(NC(=O)NC2C3CC4CC(C3)CC2C4)cc1 (centres undefined)
[1]
  pIC50: 9.05
[3]
  Activity: Non-Toxic
[4]
  Activity: Toxic
[2]
  pIC50: 9.40

## CC(C)CNC(=O)/C=C/C(=O)NC12CC3CC(C)(CC(C)(C3)C1)C2
[1]
  pIC50: 5.02
[2]
  pIC50: 4.68

## CC12CC3CC(C)(C1)CC(NC(=O)/C=C/C(=O)NC1CCCCC1)(C3)C2
[1]
  pIC50: 4.61
[2]
  pIC50: 5.26

## CC(C)CNC(=O)CCC(=O)NC(C)C12CC3CC(CC(C3)C1)C2 (centres undefined)
[1]
  pIC50: 7.29
[2]
  pIC50: 7.36

## CC(C)CNC(=O)CCCC(=O)NC1C2CC3CC1CC(O)(C3)C2 (centres undefined)
[1]
  pIC50: 7.38
[2]
  pIC50: 6.97

## CC12CC3CC(C)(C1)CC(NC(=O)CCCC(=O)NC1CCCCC1)(C3)C2
[1]
  pIC50: 5.80
[2]
  pIC50: 8.08

## CC(C)CNC(=O)c1ccc(NC(=O)NC(C)C23CC4CC(CC(C4)C2)C3)cc1 (centres undefined)
[1]
  pIC50: 7.22
[2]
  pIC50: 7.54

## CC(NC(=O)Nc1ccc(C(=O)N2CCCCC2)cc1)C12CC3CC(CC(C3)C1)C2 (centres undefined)
[1]
  pIC50: 8.41
[2]
  pIC50: 8.62

## O=C(Nc1ccc(C(=O)N2CCCCC2)cc1)NC12CC3CC(CC(O)(C3)C1)C2
[1]
  pIC50: 6.92
[2]
  pIC50: 7.05

## O=C(Nc1ccc(C(=O)N2CCCCC2)cc1)NC1C2CC3CC1CC(O)(C3)C2 (centres undefined)
[1]
  pIC50: 6.66
[2]
  pIC50: 6.30

## CC(NC(=O)Nc1ccc(C(=O)NC2CCCCC2)cc1)C12CC3CC(CC(C3)C1)C2 (centres undefined)
[1]
  pIC50: 6.66
[2]
  pIC50: 7.86

## CC(C)CNC(=O)CCCC(=O)NC1C2CC3CC(C2)CC1C3 (centres undefined)
[1]
  pIC50: 5.45
[2]
  pIC50: 5.64

## CC12CC3CC(C)(C1)CC(NC(=O)c1ccc(C(=O)NC4CCCCC4)cc1)(C3)C2
[1]
  pIC50: 5.20
[2]
  pIC50: 5.99

## CC(C)CNC(=O)CCCC(=O)NC12CC3CC(C)(CC(C)(C3)C1)C2
[1]
  pIC50: 5.21
[2]
  pIC50: 6.65

## CC12CC3CC(C)(C1)CC(NC(=O)Nc1ccc(C(=O)N4CCCCC4)cc1)(C3)C2
[5]
  Cmax: 3640 nM
[6]
  Cmax: 330 nM
[7]
  CLH: 71.7 mL/min/kg
[8]
  CLH: 4496.5 mL/min/kg
[9]
  Vd: 7.83 L/kg
[10]
  Vd: 1097.8 L/kg
[11]
  AUC(0-t): 1.83 µM·h
[12]
  AUC(0-t): 1.3 µM·h
[13]
  AUC: 1.305 µM·h
[4]
  Activity: Toxic
[14]
  residual activity: 58.9%
[15]
  residual activity: 43%
[16]
  residual activity: 26.4%
[17]
  residual activity: 17.1%
[18]
  residual activity: 12.4%

## CC12CC3CC(C)(C1)CC(NC(=O)/C=C\C(=O)N1CCCCC1)(C3)C2
[1]
  pIC50: 4.67
[2]
  pIC50: 4.09

## O=C(Nc1ccc(C(=O)NC2CCCCC2)cc1)NC1C2CC3CC(C2)CC1C3 (centres undefined)
[1]
  pIC50: 8.85
[4]
  Activity: Toxic
[2]
  pIC50: 9.40

## O=C(Nc1ccc(C(=O)N2CCCCC2)cc1)NC1C2CC3CC(C2)CC1C3 (centres undefined)
[1]
  pIC50: 9.40
[3]
  Activity: Non-Toxic
[2]
  pIC50: 9.40

## CC(C)CNC(=O)c1ccc(NC(=O)NC23CC4CC(CC(O)(C4)C2)C3)cc1
[1]
  pIC50: 6.02
[2]
  pIC50: 6.54

## CC(C)CNC(=O)CCCC(=O)NC(C)C12CC3CC(CC(C3)C1)C2 (centres undefined)
[1]
  pIC50: 5.14
[2]
  pIC50: 6.16

## CC(C)CNC(=O)CCC(=O)NC12CC3CC(C)(CC(C)(C3)C1)C2
[1]
  pIC50: 4.72
[2]
  pIC50: 5.38

## CC(C)CNC(=O)c1ccc(NC(=O)NC2C3CC4CC2CC(O)(C4)C3)cc1 (centres undefined)
[1]
  pIC50: 6.60
[2]
  pIC50: 5.63

## CC12CC3CC(C)(C1)CC(NC(=O)c1ccc(C(=O)N4CCCCC4)cc1)(C3)C2
[1]
  pIC50: 4.58
[2]
  pIC50: 4.22

## CC(C)CNC(=O)c1ccc(C(=O)NC23CC4CC(C)(CC(C)(C4)C2)C3)cc1
[1]
  pIC50: < 4.00
[2]
  pIC50: 5.18

## CC(=O)N1CCC(NC(=O)NC23CC4CC(CC(C4)C2)C3)CC1 [AR9281]
[4]
  Activity: Toxic

## C[C@@H]1C[C@H]2[C@@H]3CCC4=CC(=O)C=C[C@]4(C)[C@@]3(F)[C@@H](O)C[C@]2(C)[C@@]1(O)C(=O)CO [DEXAMETHASONE]
[19]
  survival at 5 mg/kg: 100%
[20]
  survival at 5 mg/kg: 100%
